Like-named read-outs stand apart in the source and are kept apart here.
Key:
MARK4 [1] = biological target: T1, MARK4 (Homo sapiens, UniProt Q96L34); experiment: Fluorescence quenching binding study (modified Stern-Volmer); conditions: excitation 280 nm, 25 °C
T1 construct: inferred from Ni-NTA purification; made in house
T1 sequence (Q96L34 59-368): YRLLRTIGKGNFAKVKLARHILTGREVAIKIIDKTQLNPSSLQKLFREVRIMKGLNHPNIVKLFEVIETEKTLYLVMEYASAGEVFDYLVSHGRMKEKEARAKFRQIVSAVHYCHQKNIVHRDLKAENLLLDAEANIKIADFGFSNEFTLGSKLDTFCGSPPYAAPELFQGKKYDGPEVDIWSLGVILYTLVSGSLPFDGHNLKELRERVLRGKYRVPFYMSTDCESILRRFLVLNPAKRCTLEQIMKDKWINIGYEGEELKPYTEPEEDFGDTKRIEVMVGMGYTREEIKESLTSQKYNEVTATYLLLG

MARK4 [2] = biological target: T1, MARK4; experiment: ATPase inhibition assay ([γ-32P]ATP hydrolysis, TLC); format: biochemical
MCF-7 cells [3] = experiment: Intracellular ROS by DCFDA staining; format: cell-based, human; conditions: MCF-7, 20–120 μM, 12 h
Description: (§1) Followed by incubation, to measure intracellular ROS, 2-Dichlorofluorescein diacetate (DCFDA) staining was performed. […] Further, cytoplasmic superoxide level was measured by dihydroethidium staining (Fig. 7C). […] In fluorescence imaging, substantial decreases in the extent of DHE fluorescence as compared to control (untreated cells) have been observed (Fig. 7C ). […] Total Reactive oxygen species determination (ROS) content inside the cells was determined using the DCFDA reagent. This assay measures various ROS such as H2O2 and hydroxyl radicals. […] After that cells were washed twice with PBS, pH7.4, trypsinized and collected by centrifugation. Finally cells were resuspended in 300 μl of PBS and fluorescence was measured at Jasco spectroflourimeter (FP-6200) using a 5 mm quartz cuvette. The excitation and emission filters were set at 485/500–550 nm respectively. Similarly with some modifications, cytosolic superoxide levels were determined using dihydroxyethidium staining. Briefly, cells were grown on coverslips to 70–80% confluency and replaced the complete media with reduced serum media for overnight. […] Following DHE staining, DAPI is used to satin nuclei of the cells as described earlier. Fluorescence images were taken on Nikon-EclipseTS100 microscope.

MARK4 [4] = biological target: T1, MARK4; experiment: Isothermal titration calorimetry; format: binding; conditions: ITC, two-site model; for K a1 (association constant): site 1, 25 °C; for K a2 (association constant): site 2, 25 °C
SH-SY5Y cells = experiment: MTT cell proliferation assay, SH-SY5Y; format: cell-based, human; conditions: 48 h, at a dose even higher than 200 μM
Description: (§2) Briefly, breast cancer cells (MCF-7), human cervical cancer cells (HeLa), human neuroblastoma (SH-SY5Y) cells and human embryonic kidney cells (HEK293T) were seeded in a 96 well plates at a concentration of 10 × 10^3 viable cells per well. […] After 48 h of treatment, both medium and inhibitor were removed from the cells, washed twice with phosphate buffer saline (PBS) and then 20 µl MTT (from 5 mg/ml stock) and 100 µl DMEM was loaded to each well followed by 4–5 hours incubation in a CO2 incubator at 37 °C. Finally, the residual MTT medium was removed carefully and dissolves the crystals of formazan by adding 100 µl DMSO in each well. The micro-titer plates were then agitated for 15–20 minutes on an orbital plate shaker and then absorbance at 570 nm was determined on a titerplate reader (BioRad). The absorbance value so obtained was converted into percentage viability in comparison to the control cells (untreated cells/cells treated with media only). For cell proliferation studies doxorubicin has been taken as positive control.

[5] = tested on: phosphorylation of tau in SH-SY5Y cells; experiment: Tau-phosphorylation assay by flow cytometry (anti-tau pSer262); format: cell-based, human; conditions: 80–120 μM, 24 hrs
HeLa cells = experiment: MTT cell proliferation assay, HeLa; format: cell-based; conditions: Homo sapiens, 48 h, read-out: IC50 (cell viability)
Description: as §2

MCF-7 cells [6] = experiment: MTT cell proliferation assay, MCF-7; format: cell-based; conditions: Homo sapiens, MCF7; MCF-7, MTT, 48 h; read-out: IC50 (cell viability)
Description: as §2

MCF-7 cells [7] = experiment: Cytoplasmic superoxide by DHE staining; format: cell-based, human; conditions: MCF-7, rutin 80 μM, vanillin 120 μM
Description: as §1

MCF-7 cells [8] = experiment: Annexin-V apoptosis assay by flow cytometry; format: cell-based, human; conditions: MCF-7, IC50 concentration (rutin 80 μM, vanillin 120 μM), 48 h
Text: Apoptosis plays a central role in the progress and pathophysiology of a wide variety of diseases. However, due to impairment of apoptotic signal transmission most of the cancerous cells evade apoptosis. […] Annexin- V staining was used to study the apoptosis. […] Cells were washed twice with phosphate-buffered saline (PBS) and stained with FITC labeled Annexin- V. Annexin- Vpositive cells were examined by flow cytometry. […] Annexin-V staining was used to determine the cell apoptosis, [73]. […] After treatment, nearly 2 × 10^6 cells were trypsinized and washed two times with 5 ml of PBS by centrifuging at 1800 rpm for 4 min. FITC-Annexin-V staining was done by using FITC-Annexin-V kit according to the manufacturer’s instructions (BD-Biosciences, USA). 10,000 events for each sample were analyzed by flow cytometry BD FACS Canto and data analysis was performed with help of flowJo software.

HEK293 cells = experiment: MTT cell proliferation assay, HEK293; format: cell-based, human; conditions: 48 h, at a dose even higher than 200 μM
Description: as §2

[9] = site 1, read-out: K D1 (dissociation constant)
[10] = site 2, read-out: K D2 (dissociation constant)

Binding affinity (K a) (MARK4 [1]) [M⁻¹]	IC50 (MCF-7 cells [6]) [µM]	Structure (SMILES)	inhibition at 40 µM (MARK4 [2]) [%]	DCF fluorescence (intracellular ROS) (MCF-7 cells [3])	K a1 (association constant) (MARK4 [4])	Kd (MARK4 [4]; [9]) [µM]	K a2 (association constant) (MARK4 [4])	Kd (MARK4 [4]; [10]) [µM]	Effect on cell viability (SH-SY5Y cells)	Phosphorylation of tau [5]	IC50 (HeLa cells) [µM]	Cytoplasmic superoxide levels (DHE fluorescence) (MCF-7 cells [7])	Increase in apoptosis as compared to the control cells (MCF-7 cells [8]) [%]	Effect on cell viability (HEK293 cells)	also measured
16500	120	COc1cc(C=O)ccc1O [Vanillin]	~50	dose-dependent decrease in DCF fluorescence	K a1 = 8.43 × 10^3 ± 0.5 × 10^3 M^−1	119	K a2 = 1.45 × 10^5 ± 0.29 × 10^5 M^−1	6.9	did not inhibit the viability	inhibit the phosphorylation of tau	> 200	decreases cytoplasmic superoxide levels	9	did not inhibit the viability	–
–	0.12	COc1cccc2c1C(=O)c1c(O)c3c(c(O)c1C2=O)C[C@@](O)(C(=O)CO)C[C@@H]3O[C@H]1C[C@H](N)[C@H](O)[C@H](C)O1 [doxorubicin, reference compound]	–	–	–	–	–	–	–	–	–	–	–	–	–

Second part, the compound before the results:

Structure (SMILES)	Binding affinity (K a) (MARK4 [1]) [M⁻¹]	IC50 (MCF-7 cells [6]) [µM]	inhibition at 40 µM (MARK4 [2]) [%]	DCF fluorescence (intracellular ROS) (MCF-7 cells [3])	K a1 (association constant) (MARK4 [4])	Kd (MARK4 [4]; [9]) [µM]	K a2 (association constant) (MARK4 [4])	Kd (MARK4 [4]; [10]) [µM]	Effect on cell viability (SH-SY5Y cells)	Phosphorylation of tau [5]	IC50 (HeLa cells) [µM]	Cytoplasmic superoxide levels (DHE fluorescence) (MCF-7 cells [7])	Increase in apoptosis as compared to the control cells (MCF-7 cells [8]) [%]	Effect on cell viability (HEK293 cells)	also measured
O=C(O)c1cc(O)c(O)c(O)c1 [Gallic acid]	7.6	–	–	–	–	–	–	–	–	–	–	–	–	–	–
C[C@@H]1O[C@@H](OC[C@H]2O[C@@H](Oc3c(-c4ccc(O)c(O)c4)oc4cc(O)cc(O)c4c3=O)[C@H](O)[C@@H](O)[C@@H]2O)[C@H](O)[C@H](O)[C@H]1O [Rutin]	287000	80	~50	dose-dependent decrease in DCF fluorescence	K a1 = 2.04 × 10^5 ± 0.15 × 10^5 M^−1	4.9	K a2 = 1.72 × 10^6 ± 0.31 × 10^6 M^−1	0.581	did not inhibit the viability	inhibit the phosphorylation of tau	> 200	decreases cytoplasmic superoxide levels	12	did not inhibit the viability	ATPase enzyme activity in initial screening (MARK4 [2]; initial screening, compound 30 µM (Fig. S5)): significant decrease in the enzyme activity; ΔH 1 (enthalpy change) (MARK4 [4]; site 1): ΔH 1 = −4.61 × 10^6 cal/mol; ΔS 1 (MARK4 [4]; site 1): ΔS 1 = −1.52 × 10^4 cal/mol/deg; ΔH 2 (enthalpy change) (MARK4 [4]; site 2): ΔH 2 = −1.0 × 10^4 cal/mol; ΔS 2 (MARK4 [4]; site 2): ΔS 2 = −4.74 cal/mol/deg
COc1ccc([C@@H]2CC(=O)c3c(O)cc(O[C@@H]4O[C@H](CO[C@@H]5O[C@@H](C)[C@H](O)[C@@H](O)[C@H]5O)[C@@H](O)[C@H](O)[C@H]4O)cc3O2)cc1O [Hesperidin]	112	–	–	–	–	–	–	–	–	–	–	–	–	–	–
COc1cc(/C=C/C(=O)O)ccc1O [Ferulic acid]	13000	–	–	–	–	–	–	–	–	–	–	–	–	–	–

Reference: publication PMC5573368, “Elucidation of Dietary Polyphenolics as Potential Inhibitor of Microtubule Affinity Regulating Kinase 4: In silico and In vitro Studies” (Scientific Reports, 2017)
